Results reported in ChEMBL document CHEMBL1132864, “Anti-AIDS agents part 41: synthesis and anti-HIV activity of 3',4'-di-o-(-)-camphanoyl-(+)-cis-khellactone (DCK) lactam analogues” (Bioorg Med Chem Lett, 2000).

What was measured:
[1] = Therapeutic index for inhibition of uninfected H9 cell growth to that of inhibition of HIV-1 replication in H9 lymphocyte cells; […]; format: cell-based; settings: human
H9 [2] = experiment: Concentration required to inhibit uninfected H9 cell growth; format: functional, cell-based; settings: Homo sapiens
[3] = Therapeutic index for inhibition of uninfected H9 cell growth to that of inhibition of HIV-1 replication in H9 lymphocyte cells.; format: cell-based; settings: human, H9 lymphocyte cells (uninfected and HIV-1 infected); read-out: TI
H9 [4] = experiment: Concentration required to inhibit HIV-1 replication in H9 lymphocyte cells; format: functional, cell-based; settings: Homo sapiens
[5] = Therapeutic index for inhibition of uninfected H9 cell growth to that of inhibition of HIV-1 replication in H9 lymphocyte cells;Did not dissolve; format: cell-based; settings: human
[6] = Therapeutic index for inhibition of uninfected H9 cell growth to that of inhibition of HIV-1 replication in H9 lymphocyte cells; Precipitated in the media; format: cell-based; settings: human

With `Cc1cc(=O)n(C(=O)OC(C)(C)C)c2c3c(ccc12)OC(C)(C)[C@H](OC(=O)C12CCC(C)(C(=O)O1)C2(C)C)[C@@H]3OC(=O)C12CCC(C)(C(=O)O1)C2(C)C` (stereo partly specified) the TI [1] was “Not Active” and the IC50 (H9 [2]) was over 157 µM.
Work on `Cc1cc(O)nc2c3c(ccc12)OC(C)(C)[C@H](OC(=O)C12CCC(C)(C(=O)O1)C2(C)C)[C@@H]3OC(=O)C12CCC(C)(C(=O)O1)C2(C)C` (stereo partly specified) yielded a selectivity ratio [3] of 119000, an IC50 (H9 [2]) of 28 µM and an EC50 (H9 [4]) of 0.00024 µM.
For `Cc1cc(O)nc2c3c(ccc12)OC(C)(C)C=C3`, the TI [5] was “Did not dissolve”.
In the case of `Cc1cc(O)nc2cc(N)ccc12`, the TI [1] is reported as “Not Active” and the IC50 (H9 [2]) is reported as 104 µM.
For `Cc1cc(=O)n(C(=O)OC(C)(C)C)c2c3c(ccc12)OC(C)(C)C=C3`, the TI [6] was “Precipitated”.
For `Cc1cc(O)nc2cc(O)ccc12`, the TI [1] was “Not Active” and the IC50 (H9 [2]) was 125 µM.
`Cc1c(O)nc2c3c(ccc2c1C)OC(C)(C)[C@H](OC(=O)C12CCC(C)(C(=O)O1)C2(C)C)[C@@H]3OC(=O)C12CCC(C)(C(=O)O1)C2(C)C` (stereo partly specified) showed a selectivity ratio [3] of 9100, an IC50 (H9 [2]) of 42 µM and an EC50 (H9 [4]) of 0.0046 µM.
For `CC1(C)Oc2ccc3ccc(=O)oc3c2[C@@H](OC(=O)C23CCC(C)(C(=O)O2)C3(C)C)[C@H]1OC(=O)C12CCC(C)(C(=O)O1)C2(C)C` (stereo partly specified), the selectivity ratio [3] was 137000.
In the case of `Cc1cc(=O)n(C(=O)OC(C)(C)C)c2c3c(ccc12)OC(C)(C)[C@H](O)[C@@H]3O`, the TI [6] is reported as “Precipitated”.
